Experiments:
ADK = ADK (Homo sapiens, UniProt P55263); test: In vitro ADK kinase assay with HPLC/MS; type: biochemical; details: 37° C., 5-360 minutes
Experimental: The ADK kinase assay kit was purchased from Novocib, France. ADK and ATP provided in the kit were premixed into provided kinase assay buffer. The reaction at 37° C. was started by addition of 6-ETI in DMSO at T=0, followed by quenching of 10 μL of the reaction by 30 μL acetonitrile in an eppendorf tube at 5, 10, 15, 30, 60, 120, 150, 180, and 360 minutes. The quenched reaction was briefly vortexed and centrifuged at ˜7000 g, following which the supernatant was transferred into a fresh tube and stored at 4° C. for HPLC/MS analysis. A control reaction was set up containing ADK, ATP, and Inosine, in order to generate a standard peak for IMP, while ADK, DTT, and ATP controls were generated by dissolving individual kit components in a 3:1 acetonitrile:dH2O solution.
LCMS separations were performed using a Waters ACQUITY UPLC system equipped with ACQUITY PDA (diode array), Waters Micromass SQD 2000 spectrometer, and a Waters ACQUITY BEH C18 column (1.7 μm, 2.1×100 mm). The solvent system consisted of 0.1% Formic Acid in Water (Solvent A) and 0.1% Formic Acid in Acetonitrile (Solvent B). Flow was set to 0.3 mL/min, and a gradient of 5-95% Solvent B was applied over a period of 3 minutes. Total runtime was 4 minutes. Eluents were detected using a PDA at a wavelength of 254 nm. Mass data was obtained in both positive and negative electrospray mode, at a cone voltage of 30V.

[1] = system: DNA synthesis in BC3 cells; test: Click-iT EdU DNA synthesis assay, BC3; type: cell-based, human; details: BC3, 1 μM, 24 hours
Experimental: (§1) BC3 and U266 cells were seeded at a density of 0.5 million cells/ml and treated with DMSO only, 1 μM or 1.0 μM 6-ETI for BC3 cells and 0.5 μM 6-ETI for U266 cells for 24 hrs. At 24 hrs post 6-ETI treatment, 0.5 million cells of each of the treated conditions were labeled with 10 μM of EdU for 2 hours then fixed for 30 min using 2% paraformaldehyde supplemented with 0.3M sucrose. Cells were then washed in PBS and perineabilized with 0.2% saponin, PBS with 1% BSA and 0.3M sucrose for 20 min at room temperature. During this incubation time, a click-iT cocktail mix containing, click iT reaction buffer, CuSO4, alexafluor488 and click iT reaction buffer additive was prepared according to the manufacturer's instructions. Cells were washed in PBS after permeabilization and the click-iT cocktail mix was added for 30 min at room temperature in the absence of light. To visualize DNA, cells were counterstained with Hoechst (1:1000) for another 30 min then washed and resuspended in PBS with 1% BSA. 20 μl of the resuspended cells were combined with 20 μl of mounting media Fluoromount-G (Southern biotech) and cells were mounted on Ibidi μ-slides. Cells were imaged using DeltaVision image restoration microscope (Rockefeller center).

[2] = system: Primary CD138+ human myeloma cells; test: Ex vivo viability of primary multiple myeloma samples; type: cell-based; details: 24 hours
Experimental: (§2) Cell viability assays were performed by plating log-phase cells in RPMI complete media with 20% FBS at 1*10^5 cells/mL, with concentrations of 6-ETI or phospho-6-ETI ranging from 0.1 nM to 100 μM. ATP content at 24, 48 and 72 hours post-treatment was measured by the CellTiter-Glo kit (Promega, Madison, Wis.), or by Trypan blue assay as indicated. The LC50 for 6-ETI in each cell line was determined using online EC50 software at changbioscience.com or using GraphPad Prism to determine the LC50 for 6-ETI, phospho-6-ETI and nucleoside analogs in MM cell lines and primary MM patient samples.
Bone marrow specimens were obtained from multiple myeloma patients at the New York-Presbyterian Hospital under informed consent as part of an Institutional Review Board-approved study in accordance with the Declaration of Helsinki. Primary CD138^+ human myelorna cells were isolated by Ficoll-Hypaque density gradient centrifugation. The CD138^+ bone marrow myeloma cells were then enriched from this fraction to >95% purity using an automated MACS CD138 MicroBeads system (Miltenyi Biotechnology, Inc., Auburn, Calif.). […] PBLs were harvested from normal blood using Ficoll-Paque (Sigma-Aldrich) as described previously. Cells were plated in RPMI-1640 supplemented with 20% FBS.

[3] = system: NF-κB activity in BC3NFRen-luc#3 cells; test: NF-κB luciferase reporter assay; type: cell-based, human; details: as early as 6 hours post-treatment
Source text: Exponentially growing BC3-derived reporter cell lines (BC3NFκB-luc#6 or BC3NFRen-luc#3), and unrelated luciferase expressing U251-pGL3 cells were resuspended in respective RPMI-1640 complete media, and plated in a 96-well tissue culture microplate at 7.5*10^5 cells/mL and 3*10^5 cells/mL, respectively, in the presence or absence of varying concentrations of test compounds. […]

[4] = system: PA-Tu-8988T pancreatic adenocarcinoma cell line; type: cell-based, human
Experimental: as §2
Pancreatic adenocarcinoma PA-Tu-8988T cell line was kindly provided by Lewis Cantley's lab (Weill Cornell Medicine). […] of ADK in this cell line was achieved by transducing these cells with ADK shRNA Lentiviral Particles (Santa crux) and selecting the stable cell line using 2 μg/ml Puromycin.

[5] = system: DNA synthesis in U266 cells; test: Click-iT EdU DNA synthesis assay, MM cells; type: cell-based, human; details: 24 hrs
Experimental: as §1

BC3 cells = test: Annexin V/7-AAD cell death flow cytometry; type: cell-based, human; details: 500 nM or 5 μM, 48 hours; versus IBL1
Experimental: BC3 and IBL1 cells in the exponential phase were seeded at a cell density of 0.2 million cells/ml. Cells were treated with 0.1% DMSO or with 6-ETI at a final concentration of 500 nM or 5 μM for 24, 48 or 72 hrs. Post-treatment, cells were harvested and stained with 2.54 of Alexa Fluor 647 Annexin V conjugate (Life technologies) and 2.5 fit of 7-AAD (BD biosciences) and incubated for 15 minutes in the dark at room temperature. Subsequently, 2004 of Annexin V binding buffer (BD Biosciences) was added to the cell suspension and cells analyzed by flow cytometry using BD biosciences LSRII machine.

ADK, sequence (P55263 whole entry): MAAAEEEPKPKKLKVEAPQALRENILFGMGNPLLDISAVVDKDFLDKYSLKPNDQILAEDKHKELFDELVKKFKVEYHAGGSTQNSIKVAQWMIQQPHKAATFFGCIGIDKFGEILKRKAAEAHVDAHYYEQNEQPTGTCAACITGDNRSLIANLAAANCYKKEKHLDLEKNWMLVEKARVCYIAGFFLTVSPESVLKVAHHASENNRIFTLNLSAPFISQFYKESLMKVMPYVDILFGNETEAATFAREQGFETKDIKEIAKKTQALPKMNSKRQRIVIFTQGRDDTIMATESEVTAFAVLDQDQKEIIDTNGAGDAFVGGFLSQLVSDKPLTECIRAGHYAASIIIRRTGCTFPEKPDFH

Compound: CCSc1ncnc2c1ncn2[C@@H]1O[C@H](CO)C(O)[C@@H]1O (stereo partly shown) [Compound 6-ETI, 6-ethylthioinosine]
- phosphorylation by ADK (ADK): ADK phosphorylates 6-ETI directly
- DNA synthesis (EdU incorporation) [1]: complete inhibition of DNA synthesis
- sensitivity ex vivo [2]: showed sensitivity
- NF-κB reporter activity [3]: inhibited NF-κB activity
- change in LC50 on ADK knockdown [4]: a log increase in LC50
- DNA synthesis (EdU incorporation) [5]: suppressed DNA synthesis
- proportion of dead cells (Annexin V/7-AAD) (BC3 cells): higher proportion of dead cells

Reference: patent US20190225643A1, “NOVEL NUCLEOSIDE ANALOGS AND USE THEREOF IN THERAPEUTIC TREATMENT” (CORNELL UNIVERSITY, priority 2016, published 2019)
